Results from ChEMBL document CHEMBL3797190, “Development of 3,5-Dinitrobenzylsulfanyl-1,3,4-oxadiazoles and Thiadiazoles as Selective Antitubercular Agents Active Against Replicating and Nonreplicating Mycobacterium tuberculosis” (J Med Chem, 2016).
In brackets after ≈: the same amount, converted by molar mass.

Tests used:
[1] = test system: Mycobacterium avium; test: Antimycobacterial activity against Mycobacterium avium CNCTC My 330/88 after 14 days by microdilution method; assay type: functional; settings: CNCTC My 330/88, 336 h
[2] = test system: Enterococcus faecalis; test: Antibacterial activity against Enterococcus faecalis J 14365/08 after 24 to 48 hrs by broth microdilution method; assay type: functional
[3] = test system: Klebsiella pneumoniae; test: Antibacterial activity against ESBL producing Klebsiella pneumoniae J 14368/08 after 24 to 48 hrs by broth microdilution method; assay type: functional
[4] = test system: Klebsiella pneumoniae; test: Antibacterial activity against Klebsiella pneumoniae D 11750/08 after 24 to 48 hrs by broth microdilution method; assay type: functional
[5] = test system: Staphylococcus aureus; test: Antibacterial activity against methicillin-resistant Staphylococcus aureus H 5996/08 after 24 to 48 hrs by broth microdilution method; assay type: functional
[6] = test system: Pichia kudriavzevii; test: Antifungal activity against Candida krusei E28 after 24 to 48 hrs by broth microdilution method; assay type: functional
[7] = test system: Staphylococcus epidermidis; test: Antibacterial activity against Staphylococcus epidermidis H 6966/08 after 24 to 48 hrs by broth microdilution method; assay type: functional
[8] = test system: Trichosporon asahii; test: Antifungal activity against Trichosporon asahii 1188 after 24 to 48 hrs by broth microdilution method; assay type: functional
[9] = Cytotoxicity against human HuH7 cells assessed as cell viability after 24 hrs by MTS assay; assay type: cell-based; settings: Huh-7, 24 h
[10] = test system: Mycobacterium kansasii; test: Antimycobacterial activity against Mycobacterium kansasii CNCTC My 235/80 after 21 days by microdilution method; assay type: functional; settings: CNCTC My 235/80, 504 h
[11] = Cytotoxicity against MDCK2-MDR1 cells assessed as cell viability at 20 uM after 48 hrs by MTS assay; assay type: ADME, cell-based, Canis lupus familiaris, MDCK-II; settings: dog, read-out: Activity
[12] = test system: Mycobacterium tuberculosis; test: Antimycobacterial activity against Mycobacterium tuberculosis CNCTC My 331/88 after 14 days by microdilution method; assay type: functional; settings: CNCTC My 331/88, 336 h
[13] = test system: Mycobacterium kansasii; test: Antimycobacterial activity against Mycobacterium kansasii CNCTC My 6509/96 after 7 days by microdilution method; assay type: functional; settings: CNCTC My 6509/96, 168 h
[14] = test system: Mycobacterium kansasii; test: Antimycobacterial activity against Mycobacterium kansasii CNCTC My 235/80 after 7 days by microdilution method; assay type: functional; settings: CNCTC My 235/80, 168 h
[15] = test system: Pseudomonas aeruginosa; test: Antibacterial activity against Pseudomonas aeruginosa ATCC 9027 after 24 to 48 hrs by broth microdilution method; assay type: functional
[16] = test system: Candida albicans; test: Antifungal activity against Candida albicans ATCC 44859 after 24 to 48 hrs by broth microdilution method; assay type: functional
[17] = Cytotoxicity against MDCK2-MDR1 cells assessed as cell viability at 20 uM after 24 hrs by MTS assay; assay type: ADME, cell-based, Canis lupus familiaris, MDCK-II; settings: dog, read-out: Activity
[18] = test system: Salmonella typhimurium; test: Mutagenic activity in Salmonella typhimurium TA98 assessed as reverse mutation at 30 uM by Ames test; assay type: toxicity, organism-based; settings: salmonella enterica subsp. enterica serovar typhimurium
[19] = test system: Escherichia coli; test: Antibacterial activity against Escherichia coli ATCC 8739 after 24 to 48 hrs by broth microdilution method; assay type: functional
[20] = test system: Mycobacterium kansasii; test: Antimycobacterial activity against Mycobacterium kansasii CNCTC My 6509/96 after 14 days by microdilution method; assay type: functional; settings: CNCTC My 6509/96, 336 h
[21] = test system: Mycobacterium tuberculosis; test: Antimycobacterial activity against Mycobacterium tuberculosis CNCTC My 331/88 after 21 days by microdilution method; assay type: functional; settings: CNCTC My 331/88, 504 h
[22] = test system: HeLa; test: Cytotoxicity against human HeLa cells assessed as cell viability after 24 hrs by MTS assay; assay type: cell-based
[23] = Cytotoxicity against human HuH7 cells assessed as cell viability at 20 uM after 48 hrs by MTS assay; assay type: cell-based, Huh-7; settings: read-out: Activity
[24] = test system: Nakaseomyces glabratus; test: Antifungal activity against Candida glabrata 20/I after 24 to 48 hrs by broth microdilution method; assay type: functional
[25] = test system: Lichtheimia corymbifera; test: Antifungal activity against Absidia corymbifera 272 after 24 to 48 hrs by broth microdilution method; assay type: functional
[26] = Cytotoxicity against MDCK2-MDR1 cells assessed as cell viability after 24 hrs by MTS assay; assay type: ADME, cell-based; settings: Canis lupus familiaris, MDCK-II
[27] = Cytotoxicity against human HeLa cells assessed as cell viability at 20 uM after 48 hrs by MTS assay; assay type: cell-based; settings: read-out: Activity
[28] = test system: Mycobacterium avium; test: Antimycobacterial activity against Mycobacterium avium CNCTC My 330/88 after 21 days by microdilution method; assay type: functional; settings: CNCTC My 330/88, 504 h
[29] = test system: Candida tropicalis; test: Antifungal activity against Candida tropicalis 156 after 24 to 48 hrs by broth microdilution method; assay type: functional
[30] = test system: Trichophyton mentagrophytes; test: Antifungal activity against Trichophyton mentagrophytes 445 after 72 to 120 hrs by broth microdilution method; assay type: functional
[31] = test system: Staphylococcus aureus; test: Antibacterial activity against Staphylococcus aureus ATCC 6538 after 24 to 48 hrs by broth microdilution method; assay type: functional
[32] = test system: Mycobacterium kansasii; test: Antimycobacterial activity against Mycobacterium kansasii CNCTC My 6509/96 after 21 days by microdilution method; assay type: functional; settings: CNCTC My 6509/96, 504 h
[33] = Cytotoxicity against human HeLa cells assessed as cell viability at 20 uM after 24 hrs by MTS assay; assay type: cell-based; settings: read-out: Activity
[34] = test system: Aspergillus fumigatus; test: Antifungal activity against Aspergillus fumigatus 231 after 24 to 48 hrs by broth microdilution method; assay type: functional
[35] = test system: HeLa; test: Cytotoxicity against human HeLa cells assessed as cell viability after 48 hrs by MTS assay; assay type: cell-based
[36] = test system: Mycobacterium kansasii; test: Antimycobacterial activity against Mycobacterium kansasii CNCTC My 235/80 after 14 days by microdilution method; assay type: functional; settings: CNCTC My 235/80, 336 h
[37] = Cytotoxicity against human HuH7 cells assessed as cell viability at 20 uM after 24 hrs by MTS assay; assay type: cell-based, Huh-7; settings: read-out: Activity
[38] = test system: Salmonella typhimurium; test: Mutagenic activity in Salmonella typhimurium TA100 assessed as reverse mutation at 30 uM by Ames test; assay type: toxicity, organism-based; settings: salmonella enterica subsp. enterica serovar typhimurium

SMILES	MIC99 [1]	MIC95 [2]	MIC95 [3]	MIC95 [4]	MIC95 [5]	MIC80 [6]	MIC95 [7]	MIC80 [8]	IC50 [9]	MIC99 [10]	viability at 48 h, 20 µM [11]	MIC99 [12]	MIC99 [13]	MIC99 [14]	MIC95 [15]	MIC99 [20]	MIC99 [21]	MIC99 [28]	MIC99 [32]	MIC99 [36]	further results
COc1cccc(-c2nnc(SCc3cc([N+](=O)[O-])cc([N+](=O)[O-])c3)o2)c1	16 µM (≈ 6.21 µg/mL)	> 125 µM	> 125 µM	> 125 µM	> 125 µM	> 125 µM	> 125 µM	> 125 µM	> 20 µM	0.5 µM (≈ 0.194 µg/mL)	10.5%	0.125 µM (≈ 0.0485 µg/mL)	0.125 µM (≈ 0.0485 µg/mL)	0.125 µM (≈ 0.0485 µg/mL)	> 125 µM	0.5 µM (≈ 0.194 µg/mL)	0.125 µM (≈ 0.0485 µg/mL)	16 µM (≈ 6.21 µg/mL)	1 µM (≈ 0.388 µg/mL)	0.25 µM (≈ 0.0971 µg/mL)	MIC80 [16]: > 125 µM; viability at 24 h, 20 µM [17]: 105%; Activity [18]: Non-toxic; MIC95 [19]: > 125 µM; IC50 [22]: > 20 µM; viability at 48 h, 20 µM [23]: 47%; MIC80 [24]: > 125 µM; MIC50 [25]: > 125 µM; IC50 [26]: > 20 µM; viability at 48 h, 20 µM [27]: 16.4%; MIC80 [29]: > 125 µM; MIC50 [30]: > 125 µM; MIC95 [31]: > 125 µM; viability at 24 h, 20 µM [33]: 74.2%; MIC50 [34]: > 125 µM; IC50 [35]: 4.1 µM; viability at 24 h, 20 µM [37]: 89.6%; Activity [38]: Non-toxic
O=[N+]([O-])c1ccc2c(c1)Cc1ccccc1-2 [2-NITROFLUORENE]																					Activity [18]: Toxic
CCCCCCCCCCCc1nnc(SCc2cc([N+](=O)[O-])cc([N+](=O)[O-])c2)o1	4 µM (≈ 1.75 µg/mL)	> 125 µM	> 125 µM	> 125 µM	> 125 µM	> 125 µM	> 125 µM	> 125 µM		0.25 µM (≈ 0.109 µg/mL)		0.25 µM (≈ 0.109 µg/mL)	0.25 µM (≈ 0.109 µg/mL)	0.125 µM (≈ 0.0546 µg/mL)	> 125 µM	0.25 µM (≈ 0.109 µg/mL)	0.25 µM (≈ 0.109 µg/mL)	8 µM (≈ 3.49 µg/mL)	0.25 µM (≈ 0.109 µg/mL)	0.25 µM (≈ 0.109 µg/mL)	MIC80 [16]: > 125 µM; MIC95 [19]: > 125 µM; MIC80 [24]: > 125 µM; MIC50 [25]: > 125 µM; MIC80 [29]: > 125 µM; MIC50 [30]: > 125 µM; MIC95 [31]: > 125 µM; MIC50 [34]: > 125 µM
[N-]=[N+]=[N-].[Na+] [SODIUM AZIDE]																					Activity [38]: Toxic
O=[N+]([O-])c1cc(CSc2nnc(-c3cccc(Cl)c3)s2)cc([N+](=O)[O-])c1	8 µM (≈ 3.27 µg/mL)								> 20 µM	1 µM (≈ 0.409 µg/mL)	48.6%	0.125 µM (≈ 0.0511 µg/mL)	0.25 µM (≈ 0.102 µg/mL)	0.25 µM (≈ 0.102 µg/mL)		0.5 µM (≈ 0.204 µg/mL)	0.125 µM (≈ 0.0511 µg/mL)	16 µM (≈ 6.54 µg/mL)	0.5 µM (≈ 0.204 µg/mL)	1 µM (≈ 0.409 µg/mL)	viability at 24 h, 20 µM [17]: 108%; IC50 [22]: > 20 µM; viability at 48 h, 20 µM [23]: 32.8%; IC50 [26]: > 20 µM; viability at 48 h, 20 µM [27]: 16.8%; viability at 24 h, 20 µM [33]: 78.6%; IC50 [35]: 2.6 µM; viability at 24 h, 20 µM [37]: 90.7%
